These results are taken from publication PMC4627231, “Targeting the sugar metabolism of tumors with a first-in-class 6-phosphofructo-2-kinase (PFKFB4) inhibitor” (Oncotarget, 2015).

The structures appear in SMILES notation.

The test system of the data set is H460 human lung adenocarcinoma xenografts. Description: H460 xenograft growth in athymic mice. It is filed as in vivo, BALB/c athymic mice. To be noted: 120 mg/kg daily by gavage. As for the experimental part:
For xenograft studies, LLC or H460 cells collected from exponential growth phase culture were washed and resuspended in PBS. Groups of female C57BL/6 mice were injected with LLC cells (n=10 per group, s.c., 1×10^6 cells) and groups of female BALB/c athymic mice (Charles River) were injected with H460 cells (n=10 per group, s.c, 5 × 10^6 cells). Tumor masses were determined in a blinded fashion with Vernier calipers using the formula: mass (mg) = (width, mm)^2 X (length, mm)/2 as previously described. When tumor masses were 150-200 mg, mice were randomized to daily DMSO or 5MPN (in 30% Captisol, 100 μl, by gavage). Tumor measurements and body weights were followed daily. All data are expressed as the mean ± SD of two experiments. Statistical significance was assessed by the two-sample t test (independent variable).

Take `COc1cccc2c(NCCCCCO[N+](=O)[O-])ccnc12` [Compound 5MPN, 5-(n-(8-methoxy-4-quinolyl)amino)pentyl nitrate]: the body weight result (H460-bearing BALB/c athymic mice) is recorded as “without affecting body weight”. Besides, the tumor growth result (H460 xenografts in BALB/c athymic mice) is given as “suppressed the growth”.
